≈ marks a conversion by molar mass, not a printed value.
Experiments:
Assay type in all cases: physicochemical
[1] = Fluorescence Test Method; conditions: in CHCl3 instead of HFE 7200
Protocol: Unless otherwise mentioned, the sample was diluted into HFE 7200 and spectra were collected on a fluorimeter (available under the trade designation “FLUOROLOG 3-21 HR” from Jobin-Yvon Horiba, Inc., Edison, NJ) in a 1 cm fluorescence cuvette under the following experimental parameters: • Orientation: 10 degree (front face) • EX Slit Width: 1.0 nm • EM Slit Width: 1.0 nm • EX Data Interval: 5 nm • EM Data Interval: 5 nm • EX Wavelength range: 300 nm to 500 nm • EM Wavelength range: 400 nm to 650 nm

[2] = UV/Vis Test Method; conditions: diluted into HFE 7200, 1 cm quartz cuvette
Protocol: Unless otherwise mentioned, the sample was diluted into HFE 7200 and spectra were collected on an Ultraviolet-Visible (UV/Vis) spectrometer (available under the trade designation “CARY 8454” from Agilent Technologies, Inc, Santa Clara, CA) using 1 cm quartz cuvettes.

[3] = Solubility Test Method in fluorinated fluids; conditions: for solubility: organic solvent or mixture, thermodynamic from solid
Protocol: For compounds 4 and 5, a known amount of material was weighed into a scintillation vial and 1 mL of each solvent was volumetrically added followed by sonication for dissolution. For samples that completely dissolved, the formed solution was then added to additional aliquots of sample in an attempt to generate a saturated solution. […] In the case of compound 8, approximately 100 mg was suspended in 10 mL of each solvent and shaken for 1-2 h, after which the solution was filtered via syringe filter into a tared vial and the solution mass measured. The solvent was evaporated in vacuo and the mass of the remaining residue was recorded.
These samples were repeated using less mass of Molecule 5. […] It is believed that some molecules may have a tendency to gel at high concentrations (e.g., the molecule comprises more than 50 wt % of the composition).

With `Cc1cc(=O)oc2cc(OCCCCCN(C)S(=O)(=O)C(F)(F)C(F)(F)C(F)(F)C(F)(F)F)ccc12` [Molecule 8] the “fluorescence emission λmax” value [1] was 380 nm, the “fluorescence excitation λ” value [1] was 320 nm and the “λmax from the UV/Vis test” value [2] was 320 nm. The solubility ([3]; solvent HFE 7200) was 1570 µg/mL (≈ 2.82 mM), the solubility ([3]; solvent PF-5052) was 4070 µg/mL (≈ 7.3 mM) and the “Solubility (g/mL)” value ([3]; solvent FC-70) was “Insoluble”. The “wt % of solution” value ([3]; solvent FC-70) was 0 wt %, the “wt % of solution” value ([3]; solvent HFE 7200) was 0.1 wt % and the “wt % of solution” value ([3]; solvent PF-5052) was 0.2 wt %.

Reference: US12227653B2, “Fluorinated coumarins” (3M INNOVATIVE PROPERTIES COMPANY, priority 2019, dated 2025)
